Source: EP4692114A1, “CALCITONIN ANALOGUE, AND DERIVATIVE THEREOF AND USE THEREOF” (Hangzhou Sciwind Biosciences Co., Ltd., priority 2023, dated 2024)
*1 amine or outer side, *2 acyl side, *3 side chain or, on linkers, in order; H or OH if unused. Where a SMILES comes first, the peptide text is derived from it. The star is where a group is joined. C22 diacid = O=C(O)CCCCCCCCCCCCCCCCCCCCC(=O)*; C20 diacid = O=C(O)CCCCCCCCCCCCCCCCCCC(=O)*; γGlu = O=C(O)[C@H](CCC(=O)[*:2])N[*:1]; AEEA = NCCOCCOCC(=O)O; Inp = O=C(O)C1CCNCC1

target: T1, human amylin receptors (Homo sapiens, UniProt O60896+P30988); test: Luciferase assay of amylin (amylin receptor/CRE-luc cell line); type: cell-based; details: stably transfected amylin receptor/CRE-luc CHO cells (CHO-K1/Gal5/AMY3), 24 hours incubation, luciferase readout;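 further: agonist potency from luminescence of cAMP response element-driven luciferase, EC50 derived from a standard curve of signal versus compound concentration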
T1 sequence (P30988 25-474): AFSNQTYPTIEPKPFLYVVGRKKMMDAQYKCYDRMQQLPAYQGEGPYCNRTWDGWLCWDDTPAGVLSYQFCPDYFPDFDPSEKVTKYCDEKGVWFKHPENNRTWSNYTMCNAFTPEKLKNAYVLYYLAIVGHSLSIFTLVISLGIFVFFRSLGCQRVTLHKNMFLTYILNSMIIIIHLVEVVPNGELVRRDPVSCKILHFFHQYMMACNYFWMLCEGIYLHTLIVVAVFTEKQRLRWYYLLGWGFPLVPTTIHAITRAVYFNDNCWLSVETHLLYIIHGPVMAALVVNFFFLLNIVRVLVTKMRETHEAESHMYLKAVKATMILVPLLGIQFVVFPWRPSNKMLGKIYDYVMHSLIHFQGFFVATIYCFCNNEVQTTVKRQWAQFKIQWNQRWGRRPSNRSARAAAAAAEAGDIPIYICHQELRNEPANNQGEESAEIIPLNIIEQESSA
T1 sequence (O60896 24-148 partner): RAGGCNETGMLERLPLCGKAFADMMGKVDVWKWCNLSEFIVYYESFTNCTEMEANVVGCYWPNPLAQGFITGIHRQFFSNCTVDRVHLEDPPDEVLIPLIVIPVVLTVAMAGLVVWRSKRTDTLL

Structure (SMILES) | EC50
CC(C)C[C@H](NC(=O)[C@H](CCCNC(=N)N)NC(=O)CNC(=O)[C@H](CC(C)C)NC(=O)[C@@H](NC(=O)[C@H](C)NC(=O)[C@@H](NC(=O)[C@H](CO)NC(=O)[C@H](CC(C)C)NC(=O)[C@H](CCC(N)=O)NC(=O)[C@H](CO)NC(=O)[C@H](C)NC(=O)CC[C@H](NC(=O)CCCCCCCCCCCCCCCCCCC(=O)O)C(=O)O)[C@@H](C)O)C(C)C)C(=O)N[C@@H](CO)C(=O)N[C@@H](CCC(N)=O)C(=O)N[C@@H](CCC(=O)O)C(=O)N[C@@H](CC(C)C)C(=O)N[C@@H](Cc1c[nH]cn1)C(=O)N[C@@H](CCCNC(=N)N)C(=O)N[C@@H](CC(C)C)C(=O)N[C@@H](CCC(N)=O)C(=O)N[C@@H](CC(=O)O)C(=O)N[C@@H](Cc1ccc(O)cc1)C(=O)N1CCC[C@H]1C(=O)N[C@@H](CCCNC(=N)N)C(=O)N[C@H](C(=O)N[C@@H](CCC(N)=O)C(=O)N[C@H](C(=O)NCC(=O)N[C@@H](CO)C(=O)NCC(=O)N[C@@H](CO)C(=O)N1CCC[C@H]1C(N)=O)C(C)C)[C@@H](C)O [M15] ({C20 diacid-γGlu}-ASQLSTAVLGRLSQELHRLQDYPRTQVGSGSP-NH2) | 0.016 nM
CC(C)C[C@H](NC(=O)[C@H](CCCNC(=N)N)NC(=O)CNC(=O)[C@H](CC(C)C)NC(=O)[C@@H](NC(=O)[C@H](C)NC(=O)[C@@H](NC(=O)[C@H](CO)NC(=O)[C@H](CC(C)C)NC(=O)[C@H](CCC(N)=O)NC(=O)[C@H](CO)NC(=O)[C@H](C)NC(=O)COCCOCCNC(=O)COCCOCCNC(=O)CC[C@H](NC(=O)CCCCCCCCCCCCCCCCCCCCC(=O)O)C(=O)O)[C@@H](C)O)C(C)C)C(=O)N[C@@H](CO)C(=O)N[C@@H](CCC(=O)O)C(=O)N[C@@H](CCC(=O)O)C(=O)N[C@@H](CC(C)C)C(=O)N[C@@H](Cc1c[nH]cn1)C(=O)N[C@@H](CCCNC(=N)N)C(=O)N[C@@H](CC(C)C)C(=O)N[C@@H](CCC(N)=O)C(=O)N[C@@H](CC(=O)O)C(=O)N[C@@H](Cc1ccc(O)cc1)C(=O)N1CCC[C@H]1C(=O)N[C@@H](CCCNC(=N)N)C(=O)N[C@H](C(=O)N[C@@H](CC(=O)O)C(=O)N[C@H](C(=O)NCC(=O)N[C@@H](CO)C(=O)NCC(=O)N[C@@H](CO)C(=O)N1CCC[C@H]1C(N)=O)C(C)C)[C@@H](C)O [M66] ({C22 diacid-γGlu-AEEA-AEEA}-ASQLSTAVLGRLSEELHRLQDYPRTDVGSGSP-NH2) | 0.017 nM
CC(C)C[C@H](NC(=O)[C@H](CCCNC(=N)N)NC(=O)CNC(=O)[C@H](CC(C)C)NC(=O)[C@@H](NC(=O)[C@H](C)NC(=O)[C@@H](NC(=O)[C@H](CO)NC(=O)[C@H](CC(C)C)NC(=O)[C@H](CCC(N)=O)NC(=O)[C@H](CO)NC(=O)[C@H](C)NC(=O)[C@H](CC(=O)O)NC(=O)CCCCCCCCCCCCCCCCCCC(=O)O)[C@@H](C)O)C(C)C)C(=O)N[C@@H](CO)C(=O)N[C@@H](CCC(=O)O)C(=O)N[C@@H](CCC(=O)O)C(=O)N[C@@H](CC(C)C)C(=O)N[C@@H](Cc1c[nH]cn1)C(=O)N[C@@H](CCCNC(=N)N)C(=O)N[C@@H](CC(C)C)C(=O)N[C@@H](CCC(N)=O)C(=O)N[C@@H](CC(=O)O)C(=O)N[C@@H](Cc1ccc(O)cc1)C(=O)N1CCC[C@H]1C(=O)N[C@@H](CCCNC(=N)N)C(=O)N[C@H](C(=O)N[C@@H](CC(=O)O)C(=O)N[C@H](C(=O)NCC(=O)N[C@@H](CO)C(=O)NCC(=O)N[C@@H](CO)C(=O)N1CCC[C@H]1C(N)=O)C(C)C)[C@@H](C)O [M54] ({C20 diacid}-DASQLSTAVLGRLSEELHRLQDYPRTDVGSGSP-NH2) | 0.017 nM
CC(C)C[C@H](NC(=O)[C@H](CCCNC(=N)N)NC(=O)CNC(=O)[C@H](CC(C)C)NC(=O)[C@@H](NC(=O)[C@H](C)NC(=O)[C@@H](NC(=O)[C@H](CO)NC(=O)[C@H](CC(C)C)NC(=O)[C@H](CCC(N)=O)NC(=O)[C@H](CO)NC(=O)[C@H](C)NC(=O)COCCOCCNC(=O)COCCOCCNC(=O)COCCOCCNC(=O)COCCOCCNC(=O)CC[C@H](NC(=O)CCCCCCCCCCCCCCCCCCC(=O)O)C(=O)O)[C@@H](C)O)C(C)C)C(=O)N[C@@H](CO)C(=O)N[C@@H](CCC(=O)O)C(=O)N[C@@H](CCC(=O)O)C(=O)N[C@@H](CC(C)C)C(=O)N[C@@H](Cc1c[nH]cn1)C(=O)N[C@@H](CCCNC(=N)N)C(=O)N[C@@H](CC(C)C)C(=O)N[C@@H](CCC(N)=O)C(=O)N[C@@H](CC(=O)O)C(=O)N[C@@H](Cc1ccc(O)cc1)C(=O)N1CCC[C@H]1C(=O)N[C@@H](CCCNC(=N)N)C(=O)N[C@H](C(=O)N[C@@H](CC(=O)O)C(=O)N[C@H](C(=O)NCC(=O)N[C@@H](CO)C(=O)NCC(=O)N[C@@H](CO)C(=O)N1CCC[C@H]1C(N)=O)C(C)C)[C@@H](C)O [M63] ({C20 diacid-γGlu-AEEA-AEEA-AEEA-AEEA}-ASQLSTAVLGRLSEELHRLQDYPRTDVGSGSP-NH2) | 0.037 nM
CC(C)C[C@H](NC(=O)[C@H](CCCNC(=N)N)NC(=O)CNC(=O)[C@H](CC(C)C)NC(=O)[C@@H](NC(=O)[C@H](C)NC(=O)[C@@H](NC(=O)[C@H](CO)NC(=O)[C@H](CC(C)C)NC(=O)[C@H](CCC(N)=O)NC(=O)[C@H](CO)NC(=O)[C@H](C)NC(=O)COCCOCCNC(=O)COCCOCCNC(=O)C1CCN(C(=O)CCCCCCCCCCCCCCCCCCC(=O)O)CC1)[C@@H](C)O)C(C)C)C(=O)N[C@@H](CO)C(=O)N[C@@H](CCC(=O)O)C(=O)N[C@@H](CCC(=O)O)C(=O)N[C@@H](CC(C)C)C(=O)N[C@@H](Cc1c[nH]cn1)C(=O)N[C@@H](CCCNC(=N)N)C(=O)N[C@@H](CC(C)C)C(=O)N[C@@H](CCC(N)=O)C(=O)N[C@@H](CC(=O)O)C(=O)N[C@@H](Cc1ccc(O)cc1)C(=O)N1CCC[C@H]1C(=O)N[C@@H](CCCNC(=N)N)C(=O)N[C@H](C(=O)N[C@@H](CC(=O)O)C(=O)N[C@H](C(=O)NCC(=O)N[C@@H](CO)C(=O)NCC(=O)N[C@@H](CO)C(=O)N1CCC[C@H]1C(N)=O)C(C)C)[C@@H](C)O [M62] ({C20 diacid-Inp-AEEA-AEEA}-ASQLSTAVLGRLSEELHRLQDYPRTDVGSGSP-NH2) | 0.016 nM
CC(C)C[C@H](NC(=O)[C@H](CCCNC(=N)N)NC(=O)CNC(=O)[C@H](CC(C)C)NC(=O)[C@@H](NC(=O)[C@H](C)NC(=O)[C@@H](NC(=O)[C@H](CO)NC(=O)[C@H](CC(C)C)NC(=O)[C@H](CCC(N)=O)NC(=O)[C@H](CO)NC(=O)[C@H](C)NC(=O)COCCOCCNC(=O)COCCOCCNC(=O)COCCOCCNC(=O)COCCOCCNC(=O)CC[C@H](NC(=O)CCCCCCCCCCCCCCCCCCCCC(=O)O)C(=O)O)[C@@H](C)O)C(C)C)C(=O)N[C@@H](CO)C(=O)N[C@@H](CCC(=O)O)C(=O)N[C@@H](CCC(=O)O)C(=O)N[C@@H](CC(C)C)C(=O)N[C@@H](Cc1c[nH]cn1)C(=O)N[C@@H](CCCNC(=N)N)C(=O)N[C@@H](CC(C)C)C(=O)N[C@@H](CCC(N)=O)C(=O)N[C@@H](CC(=O)O)C(=O)N[C@@H](Cc1ccc(O)cc1)C(=O)N1CCC[C@H]1C(=O)N[C@@H](CCCNC(=N)N)C(=O)N[C@H](C(=O)N[C@@H](CC(=O)O)C(=O)N[C@H](C(=O)NCC(=O)N[C@@H](CO)C(=O)NCC(=O)N[C@@H](CO)C(=O)N1CCC[C@H]1C(N)=O)C(C)C)[C@@H](C)O [M67] ({C22 diacid-γGlu-AEEA-AEEA-AEEA-AEEA}-ASQLSTAVLGRLSEELHRLQDYPRTDVGSGSP-NH2) | 0.017 nM
